Laboratory results as given in US20240199542A1, “SUBSTITUTED PYRROLIDIN-2-ONES, SALTS THEREOF AND THEIR USE AS HERBICIDALLY ACTIVE SUBSTANCES” (Bayer Aktiengesellschaft, priority 2021, published 2024).

How the values were obtained:
Assay type in all cases: in vivo
[1] = test system: Glycine max (GLXMA); experiment: Pre-emergence effects on crop plants; conditions: crop plant
Source text: (§1) Seeds of mono- and dicotyledonous weed plants and crop plants were sown, in plastic or organic planting pots, in sandy loam and covered with soil. The compounds according to the invention, formulated in the form of wettable powders (WP) or as emulsifiable concentrates (EC), were applied to the surface of the covering soil as aqueous suspension or emulsion, with the addition of 0.5% of an additive, at an application rate of 600 1 of water/ha (converted).
(§2) Following treatment, the pots were placed in a greenhouse and kept under optimum growth conditions for the test plants. The visual grading of the damage to the test plants was carried out after ca. 3 weeks in comparison to untreated controls (herbicidal effect in percent (%): 100% effect=plants have died off, 0% effect=as control plants).
(§3) Tables C1 to C3 below show the effects of selected compounds of the general formula (I) according to table 1 on various crop plants and an application rate corresponding to 320 g/ha or below obtained by the experimental procedure mentioned above in biology section A.

[2] = test system: Brassica napus (BRSNW); experiment: Pre-emergence effects on crop plants; conditions: 320 g/ha, crop plant
Source text: as §1, §2, §3

[3] = test system: Avena fatua (AVEFA); experiment: Herbicidal pre-emergence action; conditions: graded after ca. 3 weeks
Summary of the method: (§4)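 Sandy loam, seeds covered with soil → compound (WP or EC, +0.5% additive, 600 l water/ha, ≤1280 g/ha) onto covering soil → greenhouse, optimum conditions → visual % damage at ~3 wk vs untreated.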

[4] = test system: Alopecurus myosuroides (ALOMY); experiment: Herbicidal pre-emergence action; conditions: graded after ca. 3 weeks
Summary of the method: as §4

[5] = test system: Digitaria sanguinalis (DIGSA); experiment: Herbicidal pre-emergence action; conditions: 320 g/ha, graded after ca. 3 weeks
Summary of the method: as §4

[6] = test system: Glycine max (GLXMA); experiment: Post-emergence effects on crop plants; conditions: crop plant
Source text: (§5) Seeds of mono- and dicotyledonous weed plants and crop plants were sown, in plastic or organic planting pots, in sandy loam, covered with soil and grown in a greenhouse under controlled growth conditions. 2 to 3 weeks after sowing, the test plants were sprayed in the single-leaf stage. The compounds according to the invention, formulated in form of wettable powders (WP) or as emulsifiable concentrates (EC), were sprayed onto the green plant parts as aqueous suspension or emulsion, with the addition of 0.5% of an additive, at an application rate of 600 1 of water/ha (converted). The test plants were placed in the greenhouse for ca. 3 weeks under optimum growth conditions, and then the effect of the preparations was assessed visually in comparison with untreated controls (herbicidal effect in percent (%): 100% effect=plants have died off, 0% effect=as control plants).
(§6) Tables D1 to D3 below show the effects of selected compounds of the general formula (I) according to table 1 on various crop plants and an application rate corresponding to 320 g/ha or below obtained by the experimental procedure mentioned above in biology section B.

[7] = test system: Zea Mays (ZEAMX); experiment: Post-emergence effects on crop plants; conditions: crop plant
Source text: as §5, §6

[8] = test system: Brassica napus (BRSNW); experiment: Post-emergence effects on crop plants; conditions: application rate 320 g/ha, crop plant Brassica napus (BRSNW)
Source text: as §5, §6

[9] = test system: Avena fatua (AVEFA); experiment: Herbicidal post-emergence action; conditions: assessed after ca. 3 weeks
Summary of the method: (§7)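 Seeds were sown in sandy loam and grown under controlled greenhouse conditions. At the single-leaf stage (2 to 3 weeks), green parts were sprayed with the aqueous formulated compound (0.5% additive, 600 l water/ha, 1280 or 320 g/ha). About 3 weeks later, effect was rated visually in percent against untreated plants.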

[10] = test system: Lolium multiflorum (LOLMU); experiment: Herbicidal post-emergence action; conditions: assessed after ca. 3 weeks
Summary of the method: as §7

[11] = test system: Echinochloa crus-galli (ECHCG); experiment: Herbicidal post-emergence action; conditions: assessed after ca. 3 weeks
Summary of the method: as §7

[12] = test system: Alopecurus myosuroides (ALOMY); experiment: Herbicidal post-emergence action; conditions: assessed after ca. 3 weeks
Summary of the method: as §7

[13] = test system: Digitaria sanguinalis (DIGSA); experiment: Herbicidal post-emergence action; conditions: 320 g/ha, assessed after ca. 3 weeks
Summary of the method: as §7

[14] = test system: Polygonum convolvulus (POLCO); experiment: Herbicidal pre-emergence action; conditions: graded after ca. 3 weeks
Summary of the method: as §4

[15] = test system: Cyperus esculentus (CYPES); experiment: Herbicidal pre-emergence action; conditions: 1280 g/ha, graded after ca. 3 weeks
Summary of the method: as §4

[16] = test system: Lolium rigidum (LOLRI); experiment: Herbicidal pre-emergence action; conditions: 320 g/ha, graded after ca. 3 weeks
Summary of the method: as §4

[17] = test system: Setaria viridis (SETVI); experiment: Herbicidal pre-emergence action; conditions: 1280 g/ha, graded after ca. 3 weeks
Summary of the method: as §4

[18] = test system: Lolium multiflorum (LOLMU); experiment: Herbicidal pre-emergence action; conditions: 1280 g/ha, graded after ca. 3 weeks
Summary of the method: as §4

[19] = test system: Viola tricolor (VIOTR); experiment: Herbicidal pre-emergence action; conditions: graded after ca. 3 weeks
Summary of the method: as §4

[20] = test system: Echinochloa crus-galli (ECHCG); experiment: Herbicidal pre-emergence action; conditions: 1280 g/ha, graded after ca. 3 weeks
Summary of the method: as §4

[21] = test system: Setaria viridis (SETVI); experiment: Herbicidal post-emergence action; conditions: 1280 g/ha, assessed after ca. 3 weeks
Summary of the method: as §7

[22] = test system: Polygonum convolvulus (POLCO); experiment: Herbicidal post-emergence action; conditions: assessed after ca. 3 weeks
Summary of the method: as §7

[23] = test system: Veronica persica (VERPE); experiment: Herbicidal pre-emergence action; conditions: graded after ca. 3 weeks
Summary of the method: as §4

SMILES | Pre-emergence activity against AVEFA ([3]; 320 g/ha) | Pre-emergence activity against DIGSA [5] | post-emergence activity against BRSNW [8] | Post-emergence activity against ALOMY ([12]; 320 g/ha) | Post-emergence activity against DIGSA [13] | Pre-emergence activity against AVEFA ([3]; 1280 g/ha) | Pre-emergence activity against CYPES [15] | Pre-emergence activity against SETVI [17] | Pre-emergence activity against LOLMU [18] | Pre-emergence activity against VIOTR ([19]; 320 g/ha) | Pre-emergence activity against ECHCG [20] | Pre-emergence activity against ALOMY ([4]; 1280 g/ha) | Post-emergence activity against AVEFA ([9]; 1280 g/ha) | Post-emergence activity against SETVI [21] | Post-emergence activity against LOLMU ([10]; 1280 g/ha) | Post-emergence activity against ECHCG ([11]; 1280 g/ha) | Post-emergence activity against ALOMY ([12]; 1280 g/ha) | Post-emergence activity against POLCO ([22]; 1280 g/ha) | also measured
Cn1ncnc1NC(=O)CC1CCC(=O)N1Cc1cccc(F)c1F (racemic) [Example I-002] | 100% | 80% | 0% | 80% | 80% | – | – | – | – | – | – | – | – | – | – | – | – | – | pre-emergence activity against GLXMA (crop damage) ([1]; 320 g/ha): 0%; pre-emergence activity against BRSNW (crop damage) [2]: 0%; Pre-emergence activity against ALOMY ([4]; 320 g/ha): 100%; post-emergence activity against GLXMA (crop damage) ([6]; 80 g/ha): 0%; post-emergence activity against ZEAMX (crop damage) ([7]; 80 g/ha): 0%; post-emergence activity against ZEAMX (crop damage) ([7]; 320 g/ha): 0%; Post-emergence activity against AVEFA ([9]; 320 g/ha): 80%; Post-emergence activity against LOLMU ([10]; 320 g/ha): 80%; Post-emergence activity against ECHCG ([11]; 320 g/ha): 90%
CS(=O)(=O)CCOC(=O)CC1CCC(=O)N1Cc1cccc(F)c1F (racemic) [Example I-009] | – | 90% | 20% | – | 80% | 100% | 80% | 80% | 80% | 100% | 90% | 90% | 90% | 80% | 90% | 100% | 80% | – | pre-emergence activity against GLXMA (crop damage) ([1]; 80 g/ha): 20%; pre-emergence activity against BRSNW (crop damage) [2]: 0%; Pre-emergence activity against POLCO ([14]; 320 g/ha): 80%; Pre-emergence activity against LOLRI [16]: 80%; post-emergence activity against GLXMA (crop damage) ([6]; 320 g/ha): 0%
C=CCCOC(=O)CC1CCC(=O)N1Cc1cccc(F)c1F (racemic) [Example I-026] | – | – | – | – | – | 100% | 90% | 80% | 90% | – | 90% | 90% | 90% | – | 80% | 80% | 80% | 80% | –
COc1ccc(SCCOC(=O)CC2CCC(=O)N2Cc2cccc(F)c2F)cc1 (racemic) [Example I-040] | – | – | – | – | – | 90% | 80% | – | – | – | 80% | 90% | – | – | 80% | 80% | 90% | 80% | Pre-emergence activity against VERPE ([23]; 1280 g/ha): 90%
Cc1ccc(SCCOC(=O)CC2CCC(=O)N2Cc2cccc(F)c2F)cc1 (racemic) [Example I-041] | 90% | – | – | 80% | – | – | – | – | – | – | – | – | – | – | – | – | – | – | Pre-emergence activity against VERPE ([23]; 320 g/ha): 90%; Pre-emergence activity against ALOMY ([4]; 320 g/ha): 80%; Post-emergence activity against POLCO ([22]; 320 g/ha): 80%; Post-emergence activity against LOLMU ([10]; 320 g/ha): 80%; Post-emergence activity against ECHCG ([11]; 320 g/ha): 90%
Cc1cccc(CN2C(=O)CCC2CC(=O)O)c1C (racemic) [Example I-194] | – | – | – | – | 90% | – | – | – | – | – | – | – | – | – | – | – | – | – | –
O=C(CC1CCC(=O)N1Cc1cccc(F)c1F)Nc1nnc(C(F)F)s1 (racemic) [Example I-195] | – | – | – | – | – | – | – | – | – | 80% | – | – | – | – | – | – | – | – | –
O=C(O)CC1CCC(=O)N1Cc1cccc(F)c1F (centres unmarked) [Example I-003, 2-[1-[(2,3-difluorophenyl)methyl]-5-oxo-pyrrolidin-2-yl]acetic acid] | – | 90% | 0% | – | – | 90% | – | 80% | 90% | – | 80% | 90% | 90% | 80% | 90% | 90% | 90% | 80% | Pre-emergence activity against POLCO ([14]; 1280 g/ha): 90%; Pre-emergence activity against LOLRI [16]: 80%; Pre-emergence activity against VIOTR ([19]; 1280 g/ha): 90%
Cc1ccc(OCCOC(=O)CC2CCC(=O)N2Cc2cccc(F)c2F)cc1 (centres unmarked) [Example I-034, 2-(4-methylphenoxy)ethyl 2-[1-[(2,3-difluorophenyl)methyl]-5-oxo-pyrrolidin-2-yl]acetate] | – | – | – | – | – | 100% | – | – | – | – | 80% | 90% | – | 80% | 90% | 90% | 80% | 80% | Pre-emergence activity against VERPE ([23]; 1280 g/ha): 100%
O=C(CC1CCC(=O)N1Cc1cccc(F)c1F)NN1CCCC1 (centres unmarked) [Example I-200, 2-[1-[(2,3-difluorophenyl)methyl]-5-oxo-pyrrolidin-2-yl]-N-(pyrrolidin-1-yl)acetamide] | 100% | 80% | – | 80% | 80% | – | – | – | – | 80% | – | – | – | – | – | – | – | – | Pre-emergence activity against POLCO ([14]; 320 g/ha): 90%; Post-emergence activity against AVEFA ([9]; 320 g/ha): 80%
